Test results published in PubChem BioAssay AID562 (University of Pittsburgh Molecular Library Screening Center, 2006).
Calls of active or inactive are those of the source. How the calls were made is not given here.

Target: Dual specificity protein phosphatase 1 (Homo sapiens) (UniProt P28562)
Experiment: MKP-1 phosphatase inhibitors with catalase, dose response, biochemical, catalase added, active/probe assessment (AID 562)
Settings: recombinant MKP-1 phosphatase, fluorescence

Dual specificity protein phosphatase 1 (Homo sapiens), sequence (P28562 whole entry, looked up): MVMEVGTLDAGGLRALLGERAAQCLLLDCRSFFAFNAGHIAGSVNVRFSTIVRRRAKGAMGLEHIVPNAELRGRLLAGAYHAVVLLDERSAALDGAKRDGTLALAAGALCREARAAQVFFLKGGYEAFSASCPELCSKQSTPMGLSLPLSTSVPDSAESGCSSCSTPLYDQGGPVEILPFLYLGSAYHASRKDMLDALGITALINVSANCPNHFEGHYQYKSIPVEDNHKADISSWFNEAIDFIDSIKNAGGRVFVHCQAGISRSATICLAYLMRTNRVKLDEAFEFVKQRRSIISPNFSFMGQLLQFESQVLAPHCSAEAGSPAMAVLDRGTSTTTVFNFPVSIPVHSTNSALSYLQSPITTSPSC

SMILES	IC50
CC1=C(/C=C/C(C)=C/C=C/C(C)=C/C(=O)O)C(C)(C)CCC1	48.6 µM
CCc1ccc(NC(=O)CSc2nc3ccccc3c(=O)n2CCN2CCOCC2)cc1	> 50 µM (inactive)
Cc1cc(C)n2c(SCC(=O)N3CCN(S(=O)(=O)c4ccc(Cl)cc4)CC3)nnc2n1	49.9 µM
COC(=O)c1ccccc1NC(=O)CN1C(=O)C2CCCN2c2ncc(Cl)cc21 (stereo unspecified)	> 50 µM (inactive)
CCCCn1c(NC(=O)c2ccccc2)c(C#N)c2nc3ccccc3nc21	32.4 µM
COCCCn1c(N)c(C(=O)NCCC(C)C)c2nc3ccccc3nc21	> 50 µM (inactive)
O=C1Nc2ccccc2SC(c2ccccc2)C1O (stereo unspecified)	35.5 µM
CCOc1ccc(-c2cc3nc(C4CCN(C(=O)OC(C)(C)C)CC4)c(C(=O)O)cn3n2)cc1	27.7 µM
N#Cc1c(N2CCCC2)nc(N)c2c(N)nc(N3CCCC3)cc12	> 50 µM (inactive)
COc1ccc(-c2cc3nc(C4CCN(C(=O)OC(C)(C)C)CC4)c(C(=O)O)cn3n2)cc1	36.3 µM
CCCCNC(=O)c1c(N)n(CCCOC)c2nc3ccccc3nc12	> 50 µM (inactive)
CC(=O)[C@@H]1[C@@H]2C(=O)N(c3ccc(F)c(Cl)c3)C(=O)[C@@H]2C2c3ccccc3C=CN21 (stereo partly specified)	> 50 µM (inactive)
O=C(OC1CCCCC1)c1ccc2c(c1)C1C=CCC1C(C(=O)O)N2 (stereo unspecified)	17.5 µM
Cc1nc2c(C(=O)NCCC3=CCCCC3)c[nH]n2c(=O)c1Cl	49.9 µM
[O-]/[N+](=C/c1ccc(F)cc1)c1ccccc1	> 50 µM (inactive)
Cc1nc2cc(-c3cccc(F)c3)nn2c(C)c1CCC(=O)N1CCC2(CC1)OCCO2	> 50 µM (inactive)
COc1ccc2noc3c2c1C(=O)c1ccccc1-3	14.3 µM
Cn1ncnc2c(=O)n(C)c(=O)nc1-2	> 50 µM (inactive)
Nc1nc2c(s1)CCc1c-2cnn1-c1ccccc1	> 50 µM (inactive)

SMILES	IC50
COc1ccc(Cn2c(C)nc3c(c2=O)c2nc4ccccc4nc2n3Cc2ccco2)cc1	22 µM
CC(C)(C)N1C(=O)Cc2c1nc(N)c1c(N)nc(N3CCCCC3CO)c(C#N)c21 (stereo unspecified)	> 50 µM (inactive)
O=C1C=C(NCc2ccc(Cl)c(Cl)c2)CC1	> 50 µM (inactive)
O=C(c1cccs1)c1no[n+]([O-])c1C(=O)c1cccs1	6.96 µM
COc1ccc(-n2c(NC(=O)c3ccco3)c(C#N)c3nc4ccccc4nc32)cc1	> 50 µM (inactive)
O=C(NC1(O)C(=O)c2ccccc2C1=O)c1ccccc1	> 50 µM (inactive)
Cc1cc(NC(=O)c2ccc(S(=O)(=O)N3CCCC3)cc2)nc2c1c(=O)oc1ccccc12	26.1 µM
[O-]/[N+](=C\c1ccncc1)c1ccccc1	46.6 µM
O=C1c2ccccc2-c2onc3ccc(NCCCn4ccnc4)c1c23	35.2 µM
O=C(Nc1ccc2nc(-c3ccco3)c(-c3ccco3)nc2c1)N1CCCCCC1	24.1 µM
Cc1ccc(/C=C/C2=Cc3c(sc(NC(=O)CSc4n[nH]c(N)n4)c3C#N)C(C)(C)C2)o1	19.8 µM
Cc1cccc(NC(=O)c2cc(NC(=O)C3CCCCC3C(=O)O)ccc2N2CCCCC2)c1 (stereo unspecified)	> 50 µM (inactive)
Cc1c(N=c2c(=O)c3ccccc3c2=O)c(=O)n(-c2ccccc2)n1C	> 50 µM (inactive)
N#Cc1c(NC(=O)c2ccc(Br)o2)n(-c2ccccc2)c2nc3ccccc3nc12	> 50 µM (inactive)
CCOC(=O)c1ccc2c(c1)C1C=CCC1C(C(=O)O)N2 (stereo unspecified)	32.7 µM
Nc1c(N2CCCC2)cc(Cl)c2nonc12	> 50 µM (inactive)
CC(C)Sc1nc2sc3c(c2c2nnc(SCC(=O)NCc4ccco4)n12)CCCC3	22.7 µM
Cc1ccc(-c2csc(NC(=O)c3ccno3)n2)cc1	49.8 µM
CCCCn1c(SCC(=O)c2ccc(OC)cc2OC)nc2cc(S(N)(=O)=O)ccc21	42.1 µM

SMILES	IC50
CCn1c(SCC(=O)Nc2ccc3c(c2)c2ccccc2n3CC)nnc1-c1ccco1	21.1 µM
Cc1cccc(N2CCN(C(=O)Cc3c(C(=O)O)[nH]c4ccc(Cl)cc34)CC2)c1C	46.8 µM
CCOc1ccc2noc3c2c1C(=O)c1ccccc1-3	30.2 µM
Cc1ccc(C)n1-c1cccc(C(=O)O)c1	16.9 µM
[O-]/[N+](=C\c1ccc(OC(F)F)cc1)c1ccccc1	> 50 µM (inactive)
COc1ccc(Br)cc1/C=c1\sc2nc(-c3ccco3)nn2c1=O	17.2 µM
O=C1C=Cc2ccccc2C1=O	22.5 µM
CCCCCC#CCC#CCC#CCC#CCCCC(=O)O	13.1 µM
CCn1nc(-c2ccccc2)nc2c(=O)n(C)c(=O)nc1-2	> 50 µM (inactive)
CCn1nc(-c2cccs2)nc2c(=O)n(C)c(=O)nc1-2	> 50 µM (inactive)
CC(C)Cn1c(N)c(C(=O)COC(=O)c2cc(-c3ccco3)nc3ccccc23)c(=O)n(C)c1=O	25.5 µM
FC(F)(F)c1ccc(N2CCOCC2)c(Nc2nc3ccccc3n3cnnc23)c1	> 50 µM (inactive)
N#Cc1c(N)sc(=S)c2c1CCN(Cc1ccccc1)C2	> 50 µM (inactive)
COc1cc(/C=C(/C#N)c2ccc(F)cc2)ccc1OCc1ccc(C(=O)O)o1	> 50 µM (inactive)
CCCCCNC(=O)c1ccc2c(=O)[nH]c3c(C(=O)NCC4CCCO4)sc(=S)n3c2c1 (stereo unspecified)	36.7 µM
O=C(Nc1ccccc1)c1ccc2nc(-c3ccco3)c(-c3ccco3)nc2c1	32 µM
CCOc1cc(/C=C(/C#N)c2ccc(F)cc2)ccc1OCc1ccc(C(=O)O)o1	41.8 µM
CCCSc1nnc(NC(=O)c2sc3nc(-c4cccs4)ccc3c2N)s1	25.7 µM
